According to US11447495B2, “Substituted benzo[f]imidazo[1,5-a][1,4]diazepines as GABA(a) receptor modulators” (priority 2016, dated 2022):

Tests used:
HEK293 = experiment: Cytotoxicity, CellTiter-Glo cell viability assay, kidney cells; assay type: cell-based, human; conditions: human, HEK293 (HEK293T) human embryonic kidney cells
Description: The cytotoxicity of compounds may be evaluated by treating HEK293 human embryonic kidney cells with increasing concentrations of compounds for 24-48 hours followed by the quantification of living cells using Cell-Titer Glo (Promega).
Compounds with increased cytotoxicity can be identified using an in vitro cytotoxicity assay. Therefore, human embryonic kidney 293T (HEK293T) cell lines were purchased (ATCC) and cultured in 75 cm2 flasks (CellStar). Cells were grown in DMEM/High Glucose (Hyclone, #SH3024301) media to which non-essential amino acids (Hyclone, #SH30238.01), 10 mM HEPES (Hyclone, #SH302237.01), 5×106 units of penicillin and streptomycin (Hyclone, #SV30010), and 10% of heat inactivated fetal bovine serum (Gibco, #10082147) were added. Cells were harvested using 0.05% Trypsin (Hyclone, #SH3023601). The cell viability assay was evaluated using CellTiter-Glo™ Luminescent Cell Viability Assay Kit (Promega, Madison, Wis.), which contains luciferase and all its substrate except ATP. The controls for the cytotoxicity assay used were (E)-10-(bromotriphenylphosphoranyl)decyl 4-(4-(tert-butyl)phenyl)-4-oxobut-2-enoate (400 μM in DMSO, positive control) and DMSO (negative control). All luminescence readings were performed on a Tecan Infinite M1000 plate reader. Small volume transfers were performed on the Tecan Freedom EVO liquid handling system with a 100 nL pin tool transfer (V&P Scientific). Serial dilutions were done in 96-well polypropylene plates (Corning, #3365) and assays were conducted in 384-well white optical bottom plates. The assays were carried out in quadruplet in three independent runs. The data were normalized to the controls and if possible analyzed by nonlinear regression (GraphPad Prism).

[1] = system: α1β3γ2 or α4β3γ2 GABAAR expressing HEK293T cells; experiment: Automated patch clamp with EC20 GABA in HEK293T cells; assay type: cell-based; conditions: GABA EC20, 3 seconds application
[2] = system: GABAA receptor subtypes α1β3γ2, α2β3γ2, α3β3γ2, α4β3γ2 and α5β3γ2; experiment: Two-electrode voltage clamp, modulation of GABA (EC3-5) elicited currents in Xenopus oocytes; assay type: cell-based
Source text: Compounds having selective activity bias for α4 and α5-GABAAR can be identified. Patch clamp assays are used to quantify chloride flux induced inward currents resulting from agonism of GABAAR containing single α-subunits. […] For electrophysiological experiments with Xenopus oocytes (Ramerstorfer et al. European journal of pharmacology 2010, 636, 8-27) mature female Xenopus laevis (Nasco, Fort Atkinson, Wis., USA) were anaesthetized in a bath of ice-cold 0.17% Tricain (Ethyl-m-aminobenzoate) before decapitation and transfer of the frog's ovary to ND96 medium (96 mM NaCl, 2 mM KCl, 1 mM MgCl2, 5 mM HEPES; pH 7.5). Following incubation in 1 mg/ml collagenase (Sigma-Aldrich, St. Louis, Mo., USA) for 30 minutes, stage 5 to 6 oocytes were singled out of the ovary and defolliculated using a platinum wire loop. […] Maximum currents measured in mRNA injected oocytes were in the microampere range for all receptor subtypes. […] Data were digitized using a Digidata 1322A or 1550 data acquisition system (Axon Instruments, Union City, Calif., USA), recorded using Clampex 10.5 software (Molecular Devices, Sunnyvale, Calif., USA), and analyzed using Clampfit 10.5 and GraphPad Prism 6.0 (La Jolla, Calif., USA) software. […]

[3] = system: human airway smooth muscle; experiment: Relaxation of acetylcholine contracted human airway smooth muscle strips; conditions: EC50 acetylcholine, 100 μM compound, 15-60 minutes

SMILES | LD50 HEK293 (Kidney) (HEK293) [µM] | GABAA receptor subtype selectivity, current response [1] | GABAA receptor subtype selectivity, modulation of GABA elicited currents [2] | human airway smooth muscle contractile force [3]
C[C@H]1N=C(c2ccccc2F)c2cc(Br)ccc2-n2cnc(C(=O)O)c21 [GL-II-93, (R)-8-bromo-6-(2-fluorophenyl)-4-methyl-4H-benzo[f]imidazo[1,5-a][1,4]diazepine-3-carboxylic acid] | >400 | – | – | –
CCOC(=O)c1ncn2c1[C@@H]1CCCN1C(=O)c1cc(O)ccc1-2 [RJ-02-50, ethyl (S)-7-hydroxy-9-oxo-11,12,13,13a-tetrahydro-9H-benzo[e]imidazo[5,1-c]pyrrolo[1,2-a][1,4]diazepine-1-carboxylate] | >400 | positive α4β3γ2-selective GABAA receptor modulator | – | –
O=C1c2cc(O)ccc2-n2cnc(-c3cnco3)c2[C@@H]2CCCN12 [RJ-03-30, (S)-7-hydroxy-1-(oxazol-5-yl)-11,12,13,13a-tetrahydro-9H-benzo[e]imidazo[5,1-c]pyrrolo[1,2-a][1,4]diazepin-9-one] | >400 | – | – | –
C#Cc1ccc2c(c1)C(c1ccccc1F)=N[C@H](C)c1c(C(=O)O)ncn1-2 [SH-053-2′F-R-CH3-Acid, (R)-8-ethynyl-6-(2-fluorophenyl)-4-methyl-4H-benzo[f]imidazo[1,5-a][1,4]diazepine-3-carboxylic acid] | >400 | – | positive α5β3γ2-selective GABAA receptor modulator | reduced the constriction of human airway smooth muscle after 15 minutes for a period of at least 60 minutes
